Tests used:
Cln2 mRNA = Cln2 mRNA expression by semi-quantitative RT-PCR and real-time PCR in mouse primary astrocytes; assay type: cell-based
Procedure: (§1) Astroglia were isolated from mixed glial cultures as described (17,18) according to the procedure of Giulian and Baker (19). Briefly, on day 9, the mixed glial cultures were washed three times with Dulbecco's modified Eagle's medium/F-12 and subjected to shaking at 240 rpm for 2 h at 37° C. on a rotary shaker to remove microglia. After 2 days, the shaking was repeated for 24 h for the removal of oligodendroglia and to ensure the complete removal of all nonastroglial cells. The attached cells were seeded onto new plates for further studies. Total RNA was isolated from mouse primary astrocytes and human primary astrocytes using RNA-Easy Qiagen (Valencia, Calif.) kit following manufactures protocol. Semi-quantitative RT-PCR was carried out as described earlier (24) using oligo (dT) 12-18 as primer and moloney murine leukemia virus reverse transcriptase (MMLV-RT, Invitrogen) in a 20 μl reaction mixture. The resulting cDNA was appropriately amplified using Promega Master Mix (Madison, Wis.) and the following primers (Invitrogen) for murine genes: The mRNA quantification was performed using the ABI-Prism7700 sequence detection system (Applied Biosystems, Foster City, Calif.) using iTaq™ Fast Supermix With ROX (Bio-Rad, Hercules, Calif.) and the following 6-FAM/ZEN/IBFQ-labeled primers for murine genes: Cln2 and Gapdh (Integrated DNA Technologies Coralville, Iowa). The mRNA expression of the targeted genes was normalized to the level of Gapdh mRNA and data was processed by the ABI Sequence Detection System 1.6 software.

Cln3 mRNA = Cln3 mRNA expression by semi-quantitative RT-PCR in mouse primary astrocytes; assay type: cell-based; settings: 25 μM gemfibrozil, 2, 6, 12, and 24 hrs
Procedure: as §1, with “The mRNA quantification was performed using the ABI-Prism7700 sequence detection system (Applied Biosystems, Foster City, Calif.) using iTaq™ Fast Supermix With ROX (Bio-Rad, Hercules, Calif.) and the following 6-FAM/ZEN/IBFQ-labeled primers for murine genes: Cln2 and Gapdh (Integrated DNA Technologies Coralville, Iowa). The mRNA expression of the targeted genes was normalized to the level of Gapdh mRNA and data was processed by the ABI Sequence Detection System 1.6 software.” left out

TPP1 [1] = experiment: Western blot and densitometric analysis of TPP1 in mouse primary astrocytes; assay type: cell-based
Procedure: Astroglia were isolated from mixed glial cultures as described (17,18) according to the procedure of Giulian and Baker (19). Briefly, on day 9, the mixed glial cultures were washed three times with Dulbecco's modified Eagle's medium/F-12 and subjected to shaking at 240 rpm for 2 h at 37° C. on a rotary shaker to remove microglia. After 2 days, the shaking was repeated for 24 h for the removal of oligodendroglia and to ensure the complete removal of all nonastroglial cells. The attached cells were seeded onto new plates for further studies.
Western blotting was conducted as described earlier (27,28) with modifications. Briefly, cells were scraped in double-distilled H20 and sodium dodecyl sulfate (SDS), electrophoresed on NuPAGE® Novex® 4-12% Bis-Tris gels (Invitrogen) and proteins transferred onto a nitrocellulose membrane (Bio-Rad) using the Thermo-Pierce Fast Semi-Dry Blotter. The membrane was then washed for 15 min in TBS plus Tween 20 (TBST) and blocked for 1 hr in TBST containing BSA. Next, membranes were incubated overnight at 4° C. under shaking conditions with the following 1° antibodies; TPP1 (1:250, Santa Cruz), β-actin (1:800; Abcam, Cambridge, Mass. The next day, membranes were washed in TBST for 1 hr, incubated in 2° antibodies against 1° antibody hosts (all 1:10,000; Jackson ImmunoResearch) for 1 hr at room temperature, washed for one more hour and visualized under the Odyssey® Infrared Imaging System (Li-COR, Lincoln, Nebr.).
Protein blots were analyzed using ImageJ (NIH, Bethesda, Md.) and bands were normalized to their respective β-actin loading controls. Data are representative of the average fold change with respect to control for three independent experiments.

TPP1 [2] = experiment: Immunofluorescence for TPP1 in mouse primary neurons; assay type: cell-based; settings: mouse neurons from cortex, hippocampus, and striatum; 25 μM gemfibrozil and 10 μM fenofibrate, 24 hrs
Procedure: Following four 15 minute washes with filtered PBS, cells were incubated for 4-5 min with 4′, 6-diamidino-2-phenylindole (DAPI, 1:10,000; Sigma).

TPP1 [3] = experiment: Immunofluorescence for TPP1 in SH-SY5Y cells; assay type: cell-based, human; settings: 25 μM gemfibrozil and 10 μM fenofibrate, 24 hrs
Procedure: Immunocytochemistry was performed as described earlier (25). Briefly, 8 well chamber slides containing mouse primary astrocytes, mouse neurons, human primary astrocytes or SH-SY5Y cells were cultured to 70-80% confluence were fixed with chilled Methanol (Fisher Scientific, Waltham, Mass.) overnight, followed by two brief rinses with filtered PBS. Samples were blocked with 2% BSA (Fisher Scientific) in PBS containing Tween 20 (Sigma) and Triton X-100 (Sigma) for 30 min and incubated at room temperature under shaking conditions for 2 hr in PBS containing the following anti-mouse primary antibodies: […] Santa Cruz Biotech, Santa Cruz, Calif.), GFAP, (1:100; Santa Cruz), and 3-tubulin (1:5000; Millipore). After four 15 min washes in filtered PBS, the slides were further incubated with Cy2 or Cy5-labeled secondary antibodies (all 1:200; Jackson ImmunoResearch, West Grove, Pa.) for 1 hr under similar shaking conditions. Following four 15 minute washes with filtered PBS, cells were incubated for 4-5 min with 4′, 6-diamidino-2-phenylindole (DAPI, 1:10,000; Sigma). The samples were run in an EtOH and Xylene (Fisher) gradient, mounted and observed under Olympus BX41 fluorescence microscope.

[4] = system: lysosome-associated membrane protein 2 (LAMP2); experiment: Double-labeling for LAMP2 and β-tubulin in human neurons; assay type: cell-based; settings: 25 μM gemfibrozil and 10 μM fenofibrate, 24 hours
Excerpt: DAPI was used to visualize nuclei. Results represent 3 independent experiments.

Cc1ccc(C)c(OCCCC(C)(C)C(=O)O)c1 [gemfibrozil]
Cln2 mRNA expression (Cln2 mRNA; PPARα−/− astrocytes, different concentrations, 24 hrs): little or no effect
Cln2 mRNA expression in presence of PPARγ antagonist (Cln2 mRNA; WT astrocytes pre-treated with GW9662 for 30 min): increased expression
Cln2 level (quantitative real time PCR) (Cln2 mRNA; astrocytes with RXRα knockdown (RXRα siRNA), gemfibrozil (10 μM), RA (0.5 μM) alone and in combination): almost unresponsive
increase in Cln2 mRNA levels (quantitative real time PCR) (Cln2 mRNA; mouse primary astrocytes, 24 hrs, RA 0.5 μM, gemfibrozil 10 μM, combination 10 μM gemfibrozil and 0.5 μM RA): ~4 fold
Cln2 mRNA levels (RT-PCR and qPCR) (Cln2 mRNA; mouse primary astrocytes, serum free media, different doses and time points, maximum increase at 24 hrs of 25 μM gemfibrozil): upregulated
Cln3 mRNA expression (Cln3 mRNA): increase within 12 to 24 h
TPP1 levels (immunoblot, densitometric analysis) (TPP1 [1]; PPARα−/− astrocytes, 24 hrs): no significant increase
TPP1 levels (Western blot, densitometric analysis) (TPP1 [1]; RXRα siRNA transfected astrocytes, gemfibrozil (10 μM), RA (0.5 μM) alone and in combination): almost no enhancement
TPP1 (immunofluorescence) (TPP1 [2]): significant increase
level of TPP1 protein (immunofluorescence) (TPP1 [3]): considerable increase
LAMP2 (double-labeling) [4]: upregulation
